Data reported in Sander's compilation of Henry's law constants (doi:10.1021/ie980743h).

Assay: Henry solubility constant Hcp at 293 K (mol/(m3 Pa))
Conditions: reference: Dohnal and Hovorka (1999)

SMILES	Henry solubility constant Hcp at 293 K
ClCC(Cl)Cl [1,1,2-trichloroethane]	0.015
CC(Cl)CCl (centres undefined) [1,2-dichloropropane]	0.0044
CCCCCl [1-chlorobutane]	0.00067
Clc1ccccc1 [chlorobenzene]	0.0036
BrCBr [dibromomethane]	0.014
ClC(Cl)=C(Cl)Cl [tetrachloroethene]	0.00086

Assay: Henry solubility constant Hcp at 298.15 K (mol/(m3 Pa))
Conditions: reference: Dohnal and Hovorka (1999)

SMILES	Henry solubility constant Hcp
Cc1ccccc1C [1,2-dimethylbenzene]	0.0021
Cc1cccc(C)c1 [1,3-dimethylbenzene]	0.0015
Cc1ccc(C)cc1 [1,4-dimethylbenzene]	0.0015
CCC(C)(C)OC [2-methoxy-2-methylbutane]	0.01
c1ccccc1 [benzene]	0.0018
CC(C)OC(C)C [diisopropyl ether]	0.0047
C=Cc1ccccc1 [ethenylbenzene]	0.0034
Cc1ccccc1 [methylbenzene]	0.0016
